Experimental data published in patent USRE40912E1, “Process for isolation, purification, and recrystallization of lutein from saponified marigold oleoresin and uses thereof” (The Catholic University of America, priority 1994, dated 2009).

How the values were obtained:
[1] = stability of lutein suspension in olive oil by spectrophotometric and HPLC analysis; assay type: physicochemical; settings: suspension in olive oil with α-tocopherol and polysorbate 80, stored under nitrogen in a refrigerator
Description: (§1) Purified lutein from marigold flowers extract (1 g) was added to absolute alcohol (75 mL). To this solution α-tocopherol (50 mg) and food grade polysorbate 80 (an emulsifier, 4 g) was added and the mixture was sonicated for 10 minutes. The addition of α-tocopherol (0.01% by weight) was to stabilize lutein and prevent this compound from possible oxidation during long term storage. The above suspension was then mixed with 350 g of light and mild olive oil (saturated fat/polyunsaturated fat=2/1) and the mixture was sonicated for 5 minutes. […] 7 mL aliquots of this suspension was shown by spectrophotometric analysis to contain 10 mg of lutein. At various intervals, the stability and the purity of lutein suspension in the olive oil was determined by spectrophotometric and HPLC analysis. […] In one study each 7 mL aliquot of the olive oil (containing 10 mg lutein) was spread on a bagel prior to ingestion. Alternatively, this small volume of oil can be readily taken with other foods. Although this preparation of lutein dose is appropriate for conducting human studies with a limited number of subjects, other preparations of this compound into tablets or capsules can be accomplished. The formulation of β-carotene into tablets and capsules which has been developed by Hoffmann-La Roche Inc. (Nutley, N.J.), may also be found suitable for lutein with some minor modifications.

[2] = human study of oral lutein dose, plasma carotenoid profile; assay type: in vivo; settings: oral 10 mg lutein dose as suspension in olive oil (ethanol, α-tocopherol, polysorbate 80), spread on a bagel
Description: Carotenoids are considered among the fat soluble nutrients and are usually associated with the lipoprotein fractions of human blood. […] In the following, the procedure employed for the preparation of a small batch (100 dose, each 10 mg) of purified lutein is described.
as §1, with “Although this preparation of lutein dose is appropriate for conducting human studies with a limited number of subjects, other preparations of this compound into tablets or capsules can be accomplished. The formulation of β-carotene into tablets and capsules which has been developed by Hoffmann-La Roche Inc. (Nutley, N.J.), may also be found suitable for lutein with some minor modifications.” left out

stability of lutein suspension in olive oil [1]: stable for up to one month
absorption of lutein by the subjects as determined from analysis of their plasma carotenoid profile [2]: excellent absorption
SMILES: CC1=C[C@H](O)CC(C)(C)[C@H]1/C=C/C(C)=C/C=C/C(C)=C/C=C/C=C(C)/C=C/C=C(C)/C=C/C1=C(C)C[C@@H](O)CC1(C)C [lutein, (3R,3′R,6′R)-β,ε-Carotene-3,3′-diol]
